Experimental data as given in BigSolDB 2.1.

CN(C)NC(=O)CCC(=O)O
solubility (mole fraction)
Settings | 283.15 K | 288.15 K | 293.15 K | 298.15 K | 303.15 K | 308.15 K | 313.15 K | 318.15 K | 323.15 K
in 2-butoxyethanol | 0.000247 | 0.000346 | 0.000471 | 0.000632 | 0.000905 | 0.00126 | 0.00162 | 0.00213 | 0.00278
in 2-ethoxyethanol | 0.00176 | 0.00228 | 0.00291 | 0.00382 | 0.00492 | 0.00621 | 0.00767 | 0.00954 | 0.012
in 2-methoxyethanol | 0.00398 | 0.00519 | 0.00634 | 0.00784 | 0.0096 | 0.0116 | 0.014 | 0.0169 | 0.0203
in 2-propoxyethanol | 0.000405 | 0.000617 | 0.000794 | 0.00108 | 0.00144 | 0.00184 | 0.00233 | 0.00304 | 0.00393
in DMF | 0.0207 | 0.0245 | 0.0293 | 0.0329 | 0.0388 | 0.0449 | 0.0503 | 0.0568 | 0.0645
in NMP | 0.037 | 0.042 | 0.0481 | 0.0552 | 0.063 | 0.0714 | 0.0813 | 0.09 | 0.1
in acetonitrile | 0.000172 | 0.000226 | 0.000296 | 0.000386 | 0.000503 | 0.000653 | 0.000846 | 0.00109 | 0.00141
in ethanol | 0.00275 | 0.00354 | 0.00437 | 0.00551 | 0.0069 | 0.00848 | 0.0102 | 0.0128 | 0.0164
in isopropanol | 0.000326 | 0.00048 | 0.000752 | 0.0011 | 0.00159 | 0.0022 | 0.00302 | 0.00433 | 0.00579
in methanol | 0.00823 | 0.0097 | 0.0116 | 0.014 | 0.0167 | 0.0196 | 0.0227 | 0.026 | 0.0301
in n-pentanol | 0.000149 | 0.000191 | 0.00026 | 0.000344 | 0.000477 | 0.000634 | 0.000821 | 0.00109 | 0.00145
in n-propanol | 0.000944 | 0.00121 | 0.00161 | 0.00217 | 0.00285 | 0.00367 | 0.00471 | 0.00615 | 0.00768
